# Data published in patent publication US6503881B2 (priority 1996, dated 2003).
# Read-outs that look alike come from different tables or passages of the source.
# Key:
# [1] = format: biochemical
# E. coli strain ML-35 = format: cell-based; conditions: for ONPG hydrolysis diminished: cells pre-incubated with vancomycin, compared to no pre-incubation
# [2] = test system: MSSA (Smith, ATCC #19640); format: in vivo, S. aureus; conditions: formulation D
# [3] = test system: S. epidermidis (ATCC #12228); conditions: in vivo, iv
# MRSA (ATCC #33591) = format: in vivo, S. aureus; conditions: for Percentage of Animals Surviving, Treatment: MRSA ip infection in mice, iv in formulation D, protocol not named in table (1 mg/kg (20 min)); for survival: iv
# [4] = test system: microorganisms with acquired resistance
# P. aeruginosa = format: cell-based
# [5] = test system: inherently resistant microorganisms
# [6] = test system: microorganisms with acquired resistance; experiment: microbe, parasite or virus in culture
# bacterial isolates = conditions: S. aureus 19 MRSA
# [7] = E. coli ATCC 25922, agarose dilution assay
# [8] = E. coli NCTC 10418, agarose dilution assay
# [9] = E. faecium ATCC 29212, agarose dilution assay
# [10] = P. aeruginosa ATCC 27853, agarose dilution assay
# [11] = P. aeruginosa NCTC 10662, agarose dilution assay
# [12] = S. aureus MRSA9, agarose dilution assay
# [13] = S. aureus MRSA13, agarose dilution assay
# [14] = S. aureus MRSA17, agarose dilution assay
# [15] = S. marcescens SM82, agarose dilution assay
# [16] = S. pneumoniae 406LE8, agarose dilution assay
# [17] = S. pneumoniae 60120, agarose dilution assay
# [18] = S. pneumoniae ATCC 49619, agarose dilution assay
# [19] = S. aureus MRSA 13, pair Mupirocin / MBI 10CN
# [20] = S. aureus MRSA 17, pair Mupirocin / MBI 10CN, first line
compound,measurement,setting,value
I L K K W P W W P W R R K [MBI 11CN],membrane permeabilizing activity (ANTS/DPX dye release),[1],virtually abolishes membrane permeabilizing activity
same,ONPG hydrolysis diminished,E. coli strain ML-35,approximately 50%
same,survival (mice rescued),"[2]; ip 35.7 mg/kg, 60 minutes post-infection, 8 days",100%
same,activity at lower dose levels,[2]; ip below 35.7 mg/kg,little or no activity
same,survival of mice,[3],prolongs the survival of the mice
same,"Percentage of Animals Surviving, Treatment",MRSA (ATCC #33591); 6 hours post-infection,70%
same,"Percentage of Animals Surviving, Treatment",MRSA (ATCC #33591); 10 hours post-infection,30%
same,survival,"MRSA (ATCC #33591); 1 mg/kg (20 min) protocol, injections 5 minutes apart",delayed the death of the mice to a significant extent
same,survival,"MRSA (ATCC #33591); 5 mg/kg and 1 mg/kg (2 hr) protocols, injections 1 hour apart",no improvement in survivability over the negative control
same,MIC,bacteria; [7],16 µg/mL
same,MIC,bacteria; [8],4 µg/mL
same,MIC,bacteria; [9],8 µg/mL
same,MIC,bacteria; [10],>128 µg/mL
same,MIC,bacteria; [11],>128 µg/mL
same,MIC,bacteria; [12],2 µg/mL
same,MIC,bacteria; [13],16 µg/mL
same,MIC,bacteria; [14],4 µg/mL
same,MIC,bacteria; [15],>128 µg/mL
same,MIC,bacteria; [16],>128 µg/mL
same,MIC,bacteria; [17],>128 µg/mL
same,MIC,bacteria; [18],64 µg/mL
same,FIC,"[4]; peptide + Tobramycin, S. maltophilia SMA030",9.27
CO/N=C(\C(=O)N[C@@H]1C(=O)N2C(C(=O)O)=C(CSc3nc(=O)c(=O)[nH]n3C)CS[C@H]12)c1csc(N)n1 [Ceftriaxone],MIC in combination,"P. aeruginosa; P. aeruginosa PA008, pair Ceftriaxone / MBI 26",8 µg/mL
same,MIC in combination,"P. aeruginosa; P. aeruginosa PA039, pair Ceftriaxone / MBI 11J02CN",1 µg/mL
same,MIC in combination,"[5]; S. maltophilia SMA021, pair Ceftriaxone / MBI 11B7CN",1 µg/mL
same,MIC in combination,"[5]; S. maltophilia SMA021, pair Ceftriaxone / MBI 26",1 µg/mL
same,MIC in combination,"[5]; S. maltophilia SMA023, pair Ceftriaxone / MBI 11B7CN",8 µg/mL
NC[C@H]1O[C@H](O[C@H]2[C@H](O)[C@@H](O[C@H]3O[C@H](CO)[C@@H](O)[C@H](N)[C@H]3O)[C@H](N)C[C@@H]2N)[C@H](N)C[C@@H]1O [Tobramycin],MIC comb.,"[4]; S. maltophilia 037, pair Tobramycin / MBI 29",4 µg/mL
same,MIC,"[6]; Stenotrophomonas maltophilia, read-out: MIC alone, S. maltophilia 041, pair Tobramycin / MBI 29",16 µg/mL
C/C(=C\C(=O)OCCCCCCCCC(=O)O)C[C@@H]1OC[C@H](C[C@@H]2O[C@H]2[C@@H](C)[C@H](C)O)[C@@H](O)[C@H]1O [Mupirocin],MIC in combination,"P. aeruginosa; P. aeruginosa PA2, pair Mupirocin / MBI 27",0.1 µg/mL
same,MIC in combination,"P. aeruginosa; P. aeruginosa PA2, pair Mupirocin / MBI 29A3",0.1 µg/mL
same,MIC in combination,"P. aeruginosa; P. aeruginosa PA3, pair Mupirocin / MBI 29A3",0.1 µg/mL
same,MIC in combination,"P. aeruginosa; P. aeruginosa PA4, pair Mupirocin / MBI 27",0.3 µg/mL
same,MIC in combination,"P. aeruginosa; P. aeruginosa PA4, pair Mupirocin / MBI 29A3",0.1 µg/mL
same,MIC in combination,"P. aeruginosa; P. aeruginosa SBPA2, pair Mupirocin / MBI 29A3",0.1 µg/mL
same,MIC in combination,"[5]; E. coli SBECO1, pair Mupirocin / MBI 28",0.1 µg/mL
same,MIC comb.,[4]; [19],3 µg/mL
same,MIC comb.,[4]; [20],1 µg/mL
same,MIC comb.,"[4]; S. aureus MRSA 17, pair Mupirocin / MBI 11G13CN",1 µg/mL
I L R W P W W P W R R K [MBI 11B7CN],FIC,"P. aeruginosa; P. aeruginosa PA008, pair Ceftriaxone / MBI 11B7CN",9.50
same,membrane permeabilizing activity,E. coli strain ML-35; peptide pre-incubated with 150 mM NaCl or 5 mM Mg2+,significant inhibition
same,FIC,bacterial isolates; Piperacillin + peptide,0.50
same,Peptide MIC + Piperacillin,bacterial isolates,1 µg/mL
same,Peptide MIC Alone,bacterial isolates,4 µg/mL
same,Piperacillin MIC + Peptide,bacterial isolates,32 µg/mL
I L P W K W P W W P W R R [MBI 10CN],ONPG hydrolysis diminished,E. coli strain ML-35,approximately 50%
same,MIC,bacteria; A. calcoaceticus AC001,64 µg/mL
same,MIC,bacteria; E. cloacae ECL007,>128 µg/mL
same,MIC,bacteria; [7],16 µg/mL
same,MIC,bacteria; E. coli ECO001,32 µg/mL
same,MIC,bacteria; [8],8 µg/mL
same,MIC,bacteria; E. coli SBECO2,16 µg/mL
same,MIC,bacteria; E. faecalis EFS004,8 µg/mL
same,MIC,bacteria; [9],4 µg/mL
same,MIC,bacteria; E. faecium EFM003,2 µg/mL
same,MIC,bacteria; K. pneumoniae KP002,64 µg/mL
same,MIC,bacteria; [10],>128 µg/mL
same,MIC,bacteria; [11],>128 µg/mL
same,MIC,bacteria; P. aeruginosa PA002,>128 µg/mL
same,MIC,bacteria; [12],1 µg/mL
same,MIC,bacteria; [13],4 µg/mL
same,MIC,bacteria; [14],2 µg/mL
same,MIC,bacteria; S. aureus SA003,2 µg/mL
same,MIC,bacteria; S. epidermidis SE010,4 µg/mL
same,MIC,bacteria; S. maltophilia SMA002,64 µg/mL
same,MIC,bacteria; [15],>128 µg/mL
same,MIC,bacteria; S. marcescens SMS004,>128 µg/mL
same,MIC,bacteria; [16],>128 µg/mL
same,MIC,bacteria; [17],64 µg/mL
same,MIC,bacteria; [18],32 µg/mL
same,Peptide MIC,[4]; [19],4 µg/mL
same,Peptide MIC,[4]; [20],1 µg/mL
same,Peptide MIC,"[4]; S. aureus MRSA 17, pair Mupirocin / MBI 10CN, second line",2 µg/mL
COc1cccc(OC)c1C(=O)N[C@@H]1C(=O)N2[C@@H]1SC(C)(C)[C@@H]2C(=O)O [Methicillin],MIC comb.,"[4]; S. aureus SA7796, pair Methicillin / MBI 31",2 µg/mL
same,MIC comb.,"[4]; S. aureus SA7797, pair Methicillin / MBI 31",2 µg/mL
same,MIC comb.,"[4]; S. aureus SA7818, pair Methicillin / MBI 26",4 µg/mL
same,MIC comb.,"[4]; S. aureus SA7823, pair Methicillin / MBI 31",2 µg/mL
same,MIC comb.,"[4]; S. aureus SA7834, pair Methicillin / MBI 26",8 µg/mL
same,MIC comb.,"[4]; S. aureus SA7834, pair Methicillin / MBI 31",1 µg/mL
same,MIC comb.,"[4]; S. aureus SA7835, pair Methicillin / MBI 26",4 µg/mL
same,MIC comb.,"[4]; S. aureus SA7835, pair Methicillin / MBI 31",2 µg/mL
same,MIC,"[6]; Staphylococcus aureus, read-out: MIC alone, S. aureus SA7796, pair Methicillin / MBI 31",16 µg/mL
same,MIC,"[6]; Staphylococcus aureus, read-out: MIC alone, S. aureus SA7797, pair Methicillin / MBI 31",16 µg/mL
same,MIC,"[6]; Staphylococcus aureus, read-out: MIC alone, S. aureus SA7818, pair Methicillin / MBI 26",16 µg/mL
same,MIC,"[6]; Staphylococcus aureus, read-out: MIC alone, S. aureus SA7823, pair Methicillin / MBI 31",16 µg/mL
same,MIC,"[6]; Staphylococcus aureus, read-out: MIC alone, S. aureus SA7834, pair Methicillin / MBI 26",32 µg/mL
same,MIC,"[6]; Staphylococcus aureus, read-out: MIC alone, S. aureus SA7834, pair Methicillin / MBI 31",64 µg/mL
same,MIC,"[6]; Staphylococcus aureus, read-out: MIC alone, S. aureus SA7835, pair Methicillin / MBI 26",32 µg/mL
same,MIC,"[6]; Staphylococcus aureus, read-out: MIC alone, S. aureus SA7835, pair Methicillin / MBI 31",64 µg/mL
